Target: SOX2 (Homo sapiens, UniProt P48431)
Test: competitive EMSA
Assay type: binding
Settings: 300 uM compound; pH 7.5; competes with DNA; off-target control

Chain of SOX2 (P48431 whole entry): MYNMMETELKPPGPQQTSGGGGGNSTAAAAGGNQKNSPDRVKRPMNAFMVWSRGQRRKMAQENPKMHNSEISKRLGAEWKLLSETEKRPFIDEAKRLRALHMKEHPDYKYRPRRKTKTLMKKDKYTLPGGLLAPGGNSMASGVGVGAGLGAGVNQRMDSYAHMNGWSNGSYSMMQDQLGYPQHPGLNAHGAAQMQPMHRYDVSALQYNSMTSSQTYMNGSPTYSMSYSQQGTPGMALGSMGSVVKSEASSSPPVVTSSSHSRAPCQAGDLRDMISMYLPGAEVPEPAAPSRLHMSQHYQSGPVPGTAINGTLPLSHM

competitive EMSA (loss of shifted biotin-DNA probe): SOX2 was competed by Compound A only
SMILES: Cc1cc2nc(-c3cccc(NC(=O)c4ccc(C)c([N+](=O)[O-])c4)c3)oc2cc1C [A, Compound A]
